Measurements from patent publication US20260001928A1 (CORTERIA PHARMACEUTICALS, priority 2022, published 2026).
*1 amine or outer side, *2 acyl side, *3 side chain or, on linkers, in order; H or OH if unused. Where a SMILES comes first, the peptide text is derived from it. Side-chain parts run from the residue outwards. The star is where a group is joined. C18 diacid = O=C(O)CCCCCCCCCCCCCCCCC(=O)*; γGlu = O=C(O)[C@H](CCC(=O)[*:2])N[*:1]; AEEA = NCCOCCOCC(=O)O

Legend:
[1] = In vitro subcutaneous tissue supernatant (SCts) stability and metabolite identification, rat; assay type: in vitro ADME; conditions: in vitro soft spot identification, rat SCts
[2] = In vivo metabolite identification on rat plasma samples after SC administration; conditions: rat plasma after SC administration at 1 mg/kg
Experimental: Software aided in vitro metabolite identification on SCts stability samples was performed using either Metabolite Pilot (Sciex) or Biopharma Finder (Thermo). In addition, metabolite identification using Metabolite Pilot was performed on plasma samples of Comp Y following SC administration to rat at 1 mg/kg.

SMILES: CC[C@H](C)[C@H](N)C(=O)N[C@H](C(=O)N[C@@H](CC(C)C)C(=O)N[C@@H](CO)C(=O)N[C@@H](CC(C)C)C(=O)N[C@@H](CC(=O)O)C(=O)N[C@H](C(=O)N1CCC[C@H]1C(=O)N[C@H](C(=O)N[C@@H](CCCCN)C(=O)N[C@@H](CC(C)C)C(=O)N[C@@H](CCCCNC(=O)COCCOCCNC(=O)COCCOCCNC(=O)CC[C@H](NC(=O)CCCCCCCCCCCCCCCCC(=O)O)C(=O)O)C(=O)N[C@@H](CCCCN)C(=O)N[C@H](C(=O)N[C@@H](CC(C)C)C(=O)N[C@@H](CC(C)C)C(=O)N[C@@H](CCC(=O)O)C(=O)N[C@@H](CCC(N)=O)C(=O)N[C@@H](CCC(=O)O)C(=O)N[C@@H](CCCCN)C(=O)N[C@@H](CCC(N)=O)C(=O)N[C@@H](CCCCN)C(=O)N[C@@H](CCCCN)C(=O)N[C@@H](CCC(N)=O)C(=O)N[C@@H](CCCNC(=N)N)C(=O)N[C@@H](CCC(=O)O)C(=O)N[C@@H](CCC(N)=O)C(=O)N[C@@H](C)C(=O)N[C@@H](CCC(=O)O)C(=O)N[C@H](C(=O)N[C@@H](CC(N)=O)C(=O)N[C@@H](CCCCN)C(=O)N[C@@H](CCC(N)=O)C(=O)N[C@H](C(=O)N[C@@H](CC(C)C)C(=O)N[C@@H](C)C(=O)N[C@@H](CCC(N)=O)C(=O)N[C@H](C(N)=O)C(C)C)[C@@H](C)CC)[C@@H](C)O)[C@@H](C)CC)[C@@H](C)CC)C(C)C)C(C)C [SEQ ID No. 149, reference compound] (H-IVLSLDVPIKLK([AEEA-AEEA-γGlu-C18 diacid])KILLEQEKQKKQREQAETNKQILAQV-NH2)
- major metabolic soft spot, in vitro [1]: N-terminus
- major metabolic soft spot, in vivo [2]: N-terminus
